Source: ChEMBL document CHEMBL5226282, “TLR2 Agonistic Small Molecules: Detailed Structure-Activity Relationship, Applications, and Future Prospects” (J Med Chem, 2021)

Molecular target: T1, Toll-like receptor 2 (Homo sapiens, UniProt O60603)
Experiment: Agonist activity at human TLR2 transfected in HEK293 cells
Type: cell-based
Settings: not given

T1 sequence (O60603 whole entry): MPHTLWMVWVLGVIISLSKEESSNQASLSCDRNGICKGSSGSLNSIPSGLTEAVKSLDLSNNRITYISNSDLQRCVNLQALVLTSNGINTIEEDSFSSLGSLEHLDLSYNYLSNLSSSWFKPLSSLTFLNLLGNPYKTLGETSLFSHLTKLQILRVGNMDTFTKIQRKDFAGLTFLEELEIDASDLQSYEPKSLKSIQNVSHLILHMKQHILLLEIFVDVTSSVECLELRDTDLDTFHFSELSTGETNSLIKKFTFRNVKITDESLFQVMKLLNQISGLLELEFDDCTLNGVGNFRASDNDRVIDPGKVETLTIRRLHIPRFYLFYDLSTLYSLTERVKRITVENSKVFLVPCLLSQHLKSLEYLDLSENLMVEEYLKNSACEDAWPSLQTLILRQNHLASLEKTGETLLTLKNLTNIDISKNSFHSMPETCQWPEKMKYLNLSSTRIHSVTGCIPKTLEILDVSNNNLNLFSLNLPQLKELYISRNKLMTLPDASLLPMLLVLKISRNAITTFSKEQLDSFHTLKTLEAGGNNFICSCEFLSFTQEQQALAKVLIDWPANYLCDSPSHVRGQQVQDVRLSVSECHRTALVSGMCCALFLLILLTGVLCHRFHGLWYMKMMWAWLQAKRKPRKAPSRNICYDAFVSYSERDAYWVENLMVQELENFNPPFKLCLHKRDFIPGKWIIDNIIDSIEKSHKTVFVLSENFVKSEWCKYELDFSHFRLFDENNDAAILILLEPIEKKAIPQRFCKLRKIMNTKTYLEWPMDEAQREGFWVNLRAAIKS

Row | Structure (SMILES) | EC50 [µM]
1 | CCCCCCCCCCCC(=O)OC[C@H](CSC[C@@H](N)C(=O)NCCCn1ccnc1)OC(=O)CCCCCCCCCCC | 0.41
2 | CCCCCCCCCCCC(=O)OC[C@H](CSC[C@@H](N)C(=O)NCCCOCCOCCOCCCNC(=O)C(N)CS)OC(=O)CCCCCCCCCCC (some centres not stated) | 0.247
3 | CCCCCCCCCCCC(=O)OC[C@H](CSC[C@@H](N)C(=O)NCCOCCOS(=O)(=O)O)OC(=O)CCCCCCCCCCC | 0.061
4 | CCCCCCCCCCCC(=O)OC[C@H](CSC[C@@H](N)C(=O)NCCOCCOCCOCCC(=O)O)OC(=O)CCCCCCCCCCC | 0.9
5 | CCCCCCCCCCCC(=O)OC[C@H](CSC[C@@H](N)C(=O)NCCOCCOCCN)OC(=O)CCCCCCCCCCC | 1.29
6 | CCCCCCCCCCCC(=O)OC[C@H](CSC[C@@H](N)C(=O)N[C@@H](CO)C(=O)NCCOCCOCCOCCC(=O)O)OC(=O)CCCCCCCCCCC | 4.94
7 | CCCCCCCCCCCC(=O)OC[C@H](CSC[C@@H](N)C(=O)NCCCCN)OC(=O)CCCCCCCCCCC | 1.04
8 | CCCCCCCCCCCC(=O)OC[C@H](CSC[C@@H](N)C(=O)NCCc1ccc(OCCCP(=O)(O)O)cc1)OC(=O)CCCCCCCCCCC | 0.41
9 | CCCCCCCCCCCC(=O)OC[C@H](CSC[C@@H](N)C(=O)NCCOCCOCCC(F)(F)P(=O)(O)O)OC(=O)CCCCCCCCCCC | 0.031
10 | CCCCCCCCCCCC(=O)OC[C@H](CSC[C@@H](N)C(=O)NCCCC(C)(C)CO)OC(=O)CCCCCCCCCCC | 30.7
11 | CCCCCCCCCCCC(=O)OC[C@H](CSC[C@@H](N)C(=O)N[C@@H](CC)COCC(=O)O)OC(=O)CCCCCCCCCCC | 6.5
12 | CCCCCCCCCCCC(=O)OC[C@H](CSC[C@@H](N)C(=O)NC(C)(C)CO)OC(=O)CCCCCCCCCCC | 15.5

Molecular target: T1, Toll-like receptor 2
Experiment: Agonist activity at TLR2 (unknown origin)
Settings: not given

Row | Structure (SMILES) | EC50 [µM]
13 | CCCCCCCCCCCCCCCC(=O)OCCCCC[C@H](CS[C@H](N)C(=O)N[C@@H](CO)C(=O)N[C@@H](CCCCN)C(=O)N[C@@H](CCCCN)C(=O)N[C@@H](CCCCN)C(=O)N[C@@H](CCCCN)C(=O)N[C@@H](CO)C(=O)N[C@@H](CC(C)C)C(=O)N[C@@H](CC(C)C)C(=O)N[C@@H](CCSC)C(=O)N[C@@H](Cc1c[nH]c2ccccc12)C(=O)N[C@H](C(=O)N[C@H](C(=O)N[C@@H](CCC(N)=O)C(=O)N[C@H](C(=O)O)C(C)C)[C@@H](C)O)[C@@H](C)CC)OC(=O)CCCCCCCCCCCCCCC | 4.45
14 | CCCCCCCCCCCCCCCC(=O)OCC[C@@H](CS[C@H](NC(C)=O)C(=O)N[C@@H](CO)C(=O)N[C@@H](CCCCN)C(=O)N[C@@H](CCCCN)C(=O)N[C@@H](CCCCN)C(=O)N[C@@H](CCCCN)C(=O)N[C@@H](CO)C(=O)N[C@@H](CC(C)C)C(=O)N[C@@H](CC(C)C)C(=O)N[C@@H](CCSC)C(=O)N[C@@H](Cc1c[nH]c2ccccc12)C(=O)N[C@H](C(=O)N[C@H](C(=O)N[C@@H](CCC(N)=O)C(=O)N[C@H](C(=O)O)C(C)C)[C@@H](C)O)[C@@H](C)CC)OC(=O)CCCCCCCCCCCCCCC | 17.4
15 | CCCCCCCCCCCCCCCC(=O)OCC[C@H](CS[C@H](NC(C)=O)C(=O)N[C@@H](CO)C(=O)N[C@@H](CCCCN)C(=O)N[C@@H](CCCCN)C(=O)N[C@@H](CCCCN)C(=O)N[C@@H](CCCCN)C(=O)N[C@@H](CO)C(=O)N[C@@H](CC(C)C)C(=O)N[C@@H](CC(C)C)C(=O)N[C@@H](CCSC)C(=O)N[C@@H](Cc1c[nH]c2ccccc12)C(=O)N[C@H](C(=O)N[C@H](C(=O)N[C@@H](CCC(N)=O)C(=O)N[C@H](C(=O)O)C(C)C)[C@@H](C)O)[C@@H](C)CC)OC(=O)CCCCCCCCCCCCCCC | 1.16
16 | CCCCCCCCCCCCCCCC(=O)OC[C@H](CS[C@H](NC(C)=O)C(=O)N[C@@H](CO)C(=O)N[C@@H](CCCCN)C(=O)N[C@@H](CCCCN)C(=O)N[C@@H](CCCCN)C(=O)N[C@@H](CCCCN)C(=O)N[C@@H](CO)C(=O)N[C@@H](CC(C)C)C(=O)N[C@@H](CC(C)C)C(=O)N[C@@H](CCSC)C(=O)N[C@@H](Cc1c[nH]c2ccccc12)C(=O)N[C@H](C(=O)N[C@H](C(=O)N[C@@H](CCC(N)=O)C(=O)N[C@H](C(=O)O)C(C)C)[C@@H](C)O)[C@@H](C)CC)OC(=O)CCCCCCCCCCCCCCC | 0.281
17 | CCCCCCCCCCCCCCCC(=O)OCC[C@H](CS[C@H](N)C(=O)N[C@@H](CO)C(=O)N[C@@H](CCCCN)C(=O)N[C@@H](CCCCN)C(=O)N[C@@H](CCCCN)C(=O)N[C@@H](CCCCN)C(=O)N[C@@H](CO)C(=O)N[C@@H](CC(C)C)C(=O)N[C@@H](CC(C)C)C(=O)N[C@@H](CCSC)C(=O)N[C@@H](Cc1c[nH]c2ccccc12)C(=O)N[C@H](C(=O)N[C@H](C(=O)N[C@@H](CCC(N)=O)C(=O)N[C@H](C(=O)O)C(C)C)[C@@H](C)O)[C@@H](C)CC)OC(=O)CCCCCCCCCCCCCCC | 0.609

Molecular target: Toll-like receptor 2 (Mus musculus) (UniProt Q9QUN7)
Experiment: Agonist activity at mouse TLR2 transfected in HEK293 cells relative to control
Type: cell-based
Parameters: concentration or dose not given beside the values
Settings: not given

Sequence of Toll-like receptor 2 (Mus musculus) (Q9QUN7 whole entry): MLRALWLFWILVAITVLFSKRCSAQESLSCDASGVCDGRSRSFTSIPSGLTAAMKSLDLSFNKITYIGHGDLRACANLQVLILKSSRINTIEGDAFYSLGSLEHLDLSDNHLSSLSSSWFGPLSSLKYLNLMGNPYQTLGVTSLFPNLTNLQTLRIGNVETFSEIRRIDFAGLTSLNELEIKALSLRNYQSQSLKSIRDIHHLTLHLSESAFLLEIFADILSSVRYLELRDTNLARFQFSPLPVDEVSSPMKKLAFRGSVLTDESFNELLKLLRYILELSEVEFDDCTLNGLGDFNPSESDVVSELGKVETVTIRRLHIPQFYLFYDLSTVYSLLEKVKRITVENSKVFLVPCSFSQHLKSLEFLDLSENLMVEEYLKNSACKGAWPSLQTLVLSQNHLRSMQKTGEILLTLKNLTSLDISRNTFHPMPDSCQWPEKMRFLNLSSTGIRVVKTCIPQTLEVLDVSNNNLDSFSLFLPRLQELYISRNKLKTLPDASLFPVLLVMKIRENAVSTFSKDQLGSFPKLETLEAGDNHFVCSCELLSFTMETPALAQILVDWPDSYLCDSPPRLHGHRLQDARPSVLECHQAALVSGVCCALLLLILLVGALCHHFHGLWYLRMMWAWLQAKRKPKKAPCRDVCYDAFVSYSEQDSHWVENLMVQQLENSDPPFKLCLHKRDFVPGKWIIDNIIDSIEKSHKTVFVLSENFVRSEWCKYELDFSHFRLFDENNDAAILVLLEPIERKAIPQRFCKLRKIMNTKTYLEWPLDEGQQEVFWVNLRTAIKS

Row | Structure (SMILES) | Activity [%]
18 | CCCCCC(=O)OCC(CSC[C@@H](NC(=O)Cc1ccccc1)C(=O)N[C@@H](CO)C(=O)N[C@@H](CCCCN)C(=O)N[C@@H](CCCCN)C(=O)N[C@@H](CCCCN)C(=O)N[C@@H](CCCCN)C(=O)O)OC(=O)CCCCC (some centres not stated) | 0
19 | CCCCCCCCCCCCCCCC(=O)N[C@H](CSCC(COC(=O)CC)OC(=O)CC)C(=O)N[C@@H](CO)C(=O)N[C@@H](CCCCN)C(=O)N[C@@H](CCCCN)C(=O)N[C@@H](CCCCN)C(=O)N[C@@H](CCCCN)C(=O)O (some centres not stated) | 26
20 | CCC(=O)OCC(CSC[C@@H](NC(=O)Cc1ccccc1)C(=O)N[C@@H](CO)C(=O)N[C@@H](CCCCN)C(=O)N[C@@H](CCCCN)C(=O)N[C@@H](CCCCN)C(=O)N[C@@H](CCCCN)C(=O)O)OC(=O)CC (some centres not stated) | 0
21 | CCCCCCCCCCCCCCCC(=O)N[C@H](CSCC(COC(=O)CCCCC)OC(=O)CCCCC)C(=O)N[C@@H](CO)C(=O)N[C@@H](CCCCN)C(=O)N[C@@H](CCCCN)C(=O)N[C@@H](CCCCN)C(=O)N[C@@H](CCCCN)C(=O)O (some centres not stated) | 0
22 | CCCCCCCC(=O)OCC(CSC[C@@H](NC(=O)CCCCC)C(=O)N[C@@H](CO)C(=O)N[C@@H](CCCCN)C(=O)N[C@@H](CCCCN)C(=O)N[C@@H](CCCCN)C(=O)N[C@@H](CCCCN)C(=O)O)OC(=O)CCCCCCC (some centres not stated) | 11
23 | CCCCCCCCCC(=O)N[C@H](CSCC(COC(=O)CC)OC(=O)CC)C(=O)N[C@@H](CO)C(=O)N[C@@H](CCCCN)C(=O)N[C@@H](CCCCN)C(=O)N[C@@H](CCCCN)C(=O)N[C@@H](CCCCN)C(=O)O (some centres not stated) | 26
24 | CCCCCCCC(=O)OCC(CSC[C@@H](NC(=O)Cc1ccccc1)C(=O)N[C@@H](CO)C(=O)N[C@@H](CCCCN)C(=O)N[C@@H](CCCCN)C(=O)N[C@@H](CCCCN)C(=O)N[C@@H](CCCCN)C(=O)O)OC(=O)CCCCCCC (some centres not stated) | 11
25 | CCCCCC(=O)N[C@H](CSCC(COC(=O)CCCCC)OC(=O)CCCCC)C(=O)N[C@@H](CO)C(=O)N[C@@H](CCCCN)C(=O)N[C@@H](CCCCN)C(=O)N[C@@H](CCCCN)C(=O)N[C@@H](CCCCN)C(=O)O (some centres not stated) | 0
26 | CCCCCCCCCCCCCCCC(=O)N[C@H](CSCC(COC(=O)CCCCCCC)OC(=O)CCCCCCC)C(=O)N[C@@H](CO)C(=O)N[C@@H](CCCCN)C(=O)N[C@@H](CCCCN)C(=O)N[C@@H](CCCCN)C(=O)N[C@@H](CCCCN)C(=O)O (some centres not stated) | 0
27 | CCCCCCCCCCCCCC(=O)N[C@H](CSCC(COC(=O)CCCCC)OC(=O)CCCCC)C(=O)N[C@@H](CO)C(=O)N[C@@H](CCCCN)C(=O)N[C@@H](CCCCN)C(=O)N[C@@H](CCCCN)C(=O)N[C@@H](CCCCN)C(=O)O (some centres not stated) | 0
28 | CCCCCCCCCC(=O)N[C@H](CSCC(COC(=O)CCCCCCC)OC(=O)CCCCCCC)C(=O)N[C@@H](CO)C(=O)N[C@@H](CCCCN)C(=O)N[C@@H](CCCCN)C(=O)N[C@@H](CCCCN)C(=O)N[C@@H](CCCCN)C(=O)O (some centres not stated) | 11
29 | CCCCCCCCCC(=O)N[C@H](CSCC(COC(=O)CCCCC)OC(=O)CCCCC)C(=O)N[C@@H](CO)C(=O)N[C@@H](CCCCN)C(=O)N[C@@H](CCCCN)C(=O)N[C@@H](CCCCN)C(=O)N[C@@H](CCCCN)C(=O)O (some centres not stated) | < 10
30 | CCCCCC(=O)N[C@H](CSCC(COC(=O)CC)OC(=O)CC)C(=O)N[C@@H](CO)C(=O)N[C@@H](CCCCN)C(=O)N[C@@H](CCCCN)C(=O)N[C@@H](CCCCN)C(=O)N[C@@H](CCCCN)C(=O)O (some centres not stated) | 11

Same assay, conditions: filed as agonist

Row | Structure (SMILES) | Activity [%]
31 | CCCCCCCCCCCCCCCC(=O)OCC(CSC[C@@H](NC(=O)CCCCCCCCCCCCC)C(=O)N[C@@H](CO)C(=O)N[C@@H](CCCCN)C(=O)N[C@@H](CCCCN)C(=O)N[C@@H](CCCCN)C(=O)N[C@@H](CCCCN)C(=O)O)OC(=O)CCCCCCCCCCCCCCC (some centres not stated) | > 100
32 | CCCCCCCCCCCCCCCC(=O)N[C@H](CSCC(COC(=O)CCCCCCCCCCCCCCC)OC(=O)CCCCCCCCCCCCCCC)C(=O)N[C@@H](CO)C(=O)N[C@@H](CCCCN)C(=O)N[C@@H](CCCCN)C(=O)N[C@@H](CCCCN)C(=O)N[C@@H](CCCCN)C(=O)O (some centres not stated) | 51

More lines, now with the values ahead:

Row | Activity [%] | Structure (SMILES)
33 | > 100 | CCCCCCCCCCCCCCCC(=O)OCC(CSC[C@@H](NC(=O)CCCCCCCCC)C(=O)N[C@@H](CO)C(=O)N[C@@H](CCCCN)C(=O)N[C@@H](CCCCN)C(=O)N[C@@H](CCCCN)C(=O)N[C@@H](CCCCN)C(=O)O)OC(=O)CCCCCCCCCCCCCCC (some centres not stated)
34 | 51 | CCCCCCCCCCCCCC(=O)N[C@H](CSCC(COC(=O)CCCCCCC)OC(=O)CCCCCCC)C(=O)N[C@@H](CO)C(=O)N[C@@H](CCCCN)C(=O)N[C@@H](CCCCN)C(=O)N[C@@H](CCCCN)C(=O)N[C@@H](CCCCN)C(=O)O (some centres not stated)
35 | > 100 | CCCCCCCCCCCCCCCC(=O)OCC(CSC[C@@H](NC(=O)Cc1ccccc1)C(=O)N[C@@H](CO)C(=O)N[C@@H](CCCCN)C(=O)N[C@@H](CCCCN)C(=O)N[C@@H](CCCCN)C(=O)N[C@@H](CCCCN)C(=O)O)OC(=O)CCCCCCCCCCCCCCC (some centres not stated)
36 | > 100 | CCCCCCCCCCCCCCCC(=O)OCC(CSC[C@@H](NC(=O)CCCCC)C(=O)N[C@@H](CO)C(=O)N[C@@H](CCCCN)C(=O)N[C@@H](CCCCN)C(=O)N[C@@H](CCCCN)C(=O)N[C@@H](CCCCN)C(=O)O)OC(=O)CCCCCCCCCCCCCCC (some centres not stated)
37 | 51 | CCCCCCCCCCCCCC(=O)N[C@H](CSCC(COC(=O)CC)OC(=O)CC)C(=O)N[C@@H](CO)C(=O)N[C@@H](CCCCN)C(=O)N[C@@H](CCCCN)C(=O)N[C@@H](CCCCN)C(=O)N[C@@H](CCCCN)C(=O)O (some centres not stated)
